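Growth conditions: 96-well plates. Treatment: test compound, 48 hours, 5 concentrations. Analysis: linear interpolation between bracketing concentrations; unreached endpoints set to highest concentration. TGI denotes the concentration required for complete inhibition of growth.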
What was measured:
Assay in all cases: NCI tumour cell line growth inhibition, 48 h
MDA-MB-435 = system: MDA-MB-435
PC-3 prostate = system: PC-3 prostate
ACHN renal = system: ACHN renal
NCI/ADR-RES ovarian = system: NCI/ADR-RES ovarian
786-0 renal = system: 786-0 renal
KM12 colon = system: KM12 colon
M14 melanoma = system: M14 melanoma
CAKI-1 renal = system: CAKI-1 renal
SNB-19 CNS = system: SNB-19 CNS
TK-10 renal = system: TK-10 renal
MALME-3M melanoma = system: MALME-3M melanoma
RPMI-8226 leukemia = system: RPMI-8226 leukemia
EKVX NSCLC = system: EKVX NSCLC
RXF 393 renal = system: RXF 393 renal
SN12C renal = system: SN12C renal
CCRF-CEM leukemia = system: CCRF-CEM leukemia
HS 578T breast = system: HS 578T breast
DU-145 prostate = system: DU-145 prostate
SK-MEL-5 melanoma = system: SK-MEL-5 melanoma
A549 NSCLC = system: A549 NSCLC
K-562 leukemia = system: K-562 leukemia
HT29 colon = system: HT29 colon
SK-OV-3 ovarian = system: SK-OV-3 ovarian
MDA-MB-231 breast = system: MDA-MB-231 breast
COLO 205 colon = system: COLO 205 colon
OVCAR-5 ovarian = system: OVCAR-5 ovarian
BT-549 breast = system: BT-549 breast
SW-620 colon = system: SW-620 colon
IGROV1 ovarian = system: IGROV1 ovarian
UO-31 renal = system: UO-31 renal
OVCAR-3 ovarian = system: OVCAR-3 ovarian
U251 CNS = system: U251 CNS
UACC-62 melanoma = system: UACC-62 melanoma
SK-MEL-2 melanoma = system: SK-MEL-2 melanoma
UACC-257 melanoma = system: UACC-257 melanoma
HCT-116 colon = system: HCT-116 colon
SNB-75 CNS = system: SNB-75 CNS
OVCAR-8 ovarian = system: OVCAR-8 ovarian
SK-MEL-28 melanoma = system: SK-MEL-28 melanoma
MOLT-4 leukemia = system: MOLT-4 leukemia
HOP-92 NSCLC = system: HOP-92 NSCLC
SF-268 CNS = system: SF-268 CNS
HOP-62 NSCLC = system: HOP-62 NSCLC
NCI-H226 lung = system: NCI-H226 lung
MDA-N = system: MDA-N
NCI-H522 lung = system: NCI-H522 lung
NCI-H23 lung = system: NCI-H23 lung
SF-295 CNS = system: SF-295 CNS
OVCAR-4 ovarian = system: OVCAR-4 ovarian
T-47D breast = system: T-47D breast
HL-60(TB) leukemia = system: HL-60(TB) leukemia
HCT-15 colon = system: HCT-15 colon

Measured: TGI

Cc1cc(S(=O)(=O)O)ccc1N=Nc1c(O)ccc2ccccc12
> 100 µM: all assays above

Reference: PubChem BioAssay (NCI)
